From patent US5565336A, “Carboxy terminal IL-6 muteins” (University of North Carolina at Chapel Hill, priority 1994, dated 1996)

Tests used:
[1] = test system: human hepatoma cell line HEP3B2; assay: hepatocyte stimulation (fibrinogen induction) assay using human hepatoma cell line HEP3B2; format: cell-based; conditions: in vitro activity on a human hepatoma cell line; result in words
Excerpt: The biological activity of wild-type IL-6 and IL-6 muteins can be measured by standard assays for measuring IL-6 activity, as is known in the art. For example, the in vitro biological activity of the IL-6 muteins of the invention may be compared with native IL-6 in a fibrinogen induction assay using a human hepatoma cell line, HEP3B2. When determined in such an assay and expressed as a percentage of activity of native, wild-type, IL-6, the activity of which is defined as 100%, the biological activity of the muteins of the present invention is at least 125%, preferably at least 150%. (See Example 3 and FIG. 6)
The hepatocyte stimulation assay using human hepatoma cell line HEP3B2 is carried out in duplicate serial dilutions of three or more independent preparations of each IL-6 mutein. The biological activity is determined from dose response curves prepared for each protein preparation. To minimize variation, a duplicate protein preparation of wild-type IL-6 is used in each 96-well tissue culture plate to calculate the activity of two (HEP3B2) IL-6 muteins on the same plate as a percentage of wild-type IL-6 activity. (See FIG. 6)
Cells from the human hepatoma cell line HEP3B2 are maintained in DMEM-H medium supplemented with 10% fetal bovine serum and penicillin/streptomycin. […] The OD405 is determined on a Vmax ELISA plate reader (Molecular Devices Corp., Palo Alto, Calif.). […]

IL-6 receptor = assay: binding competition assay / Scatchard analysis with 125I-IL-6 on human myeloma cell line U-266; conditions: Kd wild-type IL-6 divided by Kd mutein; result in words
Procedure: The affinity may be determined with a Scatchard analysis and quantitated as a dissociation constant, Kd.
Binding competition assays are performed using human recombinant IL-6 derived from Escherichia coli (Genetics Institute, Cambridge, Mass.). IL-6 is radioiodinated using the Bolton-Hunter reagent (New England Nuclear, Wilmington, Del.) as described by Faltynek, C. […] The specific activity of the radiolabelled IL-6 is 22 μC/μg. […] This medium is also used for making the dilutions of the IL-6 muteins and as the binding medium. The fetal bovine serum batches are routinely tested for IL-6 activity and only batches that show negligible IL-6 activity are used for competition binding assays. […]
Binding is performed by sealing the plates with acetate plate sealers (ICN Biomedicals, Costa Mesa, Calif.) and end-over rotation for 3 hours at 4° C. […] The cell pellets are washed once with 200 μl of ice-cold Ca^++ /Mg^+ free Hank's balanced salt solution (HBSS), resuspended in 200 μl of HBSS, transferred to scintillation vials and counted in a gamma counter.
The results of the Scatchard and competition binding assays are analyzed using a non-linear curve fitting program LIGAND. […] An apparent IC50 is calculated using the EBDA/LIGAND program.

For “IL-6 mutein with Phenylalanine at position 171 of the native sequence (Phe^171) replaced by Leucine (Leu): mutein of human IL-6 with substitution of Phenylalanine by Leucine at position 171; SEQ. ID. NOS. 3 and 4”, the “biological activity compared to wild-type IL-6” value [1] was “higher biological activity” and the “receptor binding capacity compared to wild-type IL-6” value (IL-6 receptor) was “increased receptor binding capacity”.
